Experimental findings from article PMC7156724, “Potent BRD4 inhibitor suppresses cancer cell-macrophage interaction” (Nature Communications, 2020) are described below.

One data set has as its system MDA-MB231 cells. Nature of the data set: 3D matrigel assay, MDA-MB231. Format: cell-based, human. Particulars: MDA-MB231, 100 nM. The procedure: Fig. 2 NHWD-870 inhibited BRD4 phosphorylation and c-MYC expression, and suppressed cell growth. a Representative western blot analysis of p-BRD4 (s484/488), BRD4, c-MYC, and GAPDH after treatment of MDA-MB231, SUM159, A2780 ES-2, and H526 cells with JQ-1 or NHWD-870 at the indicated concentrations for 24 h. GAPDH served as the loading control. Selected from three independent experiments. b MTT assays of H526, A2780, ES-2, and MDA-MB231 cells treated with JQ-1 or NHWD-870 at the indicated concentrations for 5 days. Data are presented as mean ± SEM from three independent experiments. c, d Clonogenic assays of H526, A2780, ES-2 and MDA-MB231 cells treated with 250 nM JQ-1 or NHWD-870 for 5 days. Shown are representative images (c) and quantification of colonies (d). […] Shown are representative images (e) and quantification of relative colony sizes (f). Scale bar, 50 μm. Data are presented as mean ± SEM from five independent experiments. p values were calculated using two-tailed, unpaired t tests in this figure. **p < 0.01; ***p < 0.001. Source data are provided as a Source Data file.
Single clone spheroids were generated by culturing A2780, ES-2, H526 and MDA-MB231 cells for 16 h as a hanging drop over a humidified plate in a CO2 incubator in their corresponding complete media. […] The relative spheroid sizes were measured with ImageJ version 1.52s using the 15 representative spheroids.

Another data set has as its system TAMs. Nature of the data set: Transwell 3D co-culture of pretreated A2780 cells and TAMs, spheroid volume. Type of data set: cell-based, mouse. On the procedure:
A2780 tumor cells were pretreated with 100 nM NHWD-870 and then directly co-cultured with TAMs (A2780:TAMs ratio as 4:1) at the density of 1 × 10^5 total cells in a 12-well. Shown are immunofluorescent staining of Ki67 and CD68 (a) and quantification of Ki67+ and CD68− or CD68+ cells (b). Scale bar is 50 μm. […] A2780 cells (pre-treated with or without 100 nM NHWD-870 for 48 h) were seeded into the top chamber (transwell size: 0.4 μm) and TAMs (Mac, 40,000 cells per 24-well) in medium containing 2% matrigel were seeded into the bottom chamber pre-coated with Matrigel. No NHWD-870 was added to the co-culture. The upper chamber without A2780 cells was used as a control. Shown are schematics of transwell co-culture experiment (c), representative pictures of TAM spheroid (d: black/white), and quantification of spheroid volumes (e). Scale bar is 50 μm. […] Data are presented as mean ± SEM from three independent experiments. g CSF1 protein levels in supernatant of 10^6 ID8, B16, A2780, SKOV3, and A375 cells treated with DMSO or 25 nM NHWD-870 for 24 h, as measured by ELISA. […] Scale bar is 20 μm. i Quantification of CSF1 staining in DMSO or 100 nM NHWD-870 treated A2780 cells. […] Shown are representative immunofluorescent staining of CSF1 (green) and CD68 (red) (j) and quantification of CSF1 staining (k). […]

Data set [1] relates to monocytes in peripheral blood. Nature of the data set: Complete blood cell counting of monocytes in B16F10 tumor bearing mice. Type of data set: in vivo, mouse. To be noted: B16F10 melanoma tumor bearing mice, 11 days. The procedure: Reviewer Fig 3. […] B16F10 melanoma […]
tumor bearing mice (n=5) treated with the indicated compounds for 11 days. Monocytes in blood of DMSO and NHWD-870-treated mice were analyzed by complete blood cell counting (CBC). […]
tumor cells blocks mCSF expression and blocks proliferation of macrophages ex vivo. It is not possible from these studies to conclude if NHWD-870 mediated inhibition of mCSF expression is responsible for […]
In part, this is because the culture conditions for this unusual assay have not been described in the methods or text sections. What are the components of the culture medium? Does it include serum, mCSF and other growth factors? A more direct method of testing the effect of tumor cell expressed mCSF on TAMs ex vivo is to incubate TAMs in defined tumor cell conditioned media from untreated and treated tumor cells (the media placed on the macrophages should not include the drug, however). However, there is one other key weakness to these studies that […]
It is thus not clear if absence of mCSF or products from dying cells suppress macrophage growth as colonies ex vivo. […]
experiments, which has been added and addressed in response to comment #4. We agree that the experiments can be done with conditioned media. […]
Shown are schematics of the experiments (m) and quantification of TAMs (n, o). […]

Several values for one entry are separate records, joined by “and”; a condition that tells them apart may be missing. Identical values can stand only once.

As to `Cc1nnn(C)c1-c1cnc2c3c4cnn(C)c4ccc3n([C@H](c3ccccc3)C3CCOCC3)c2c1` [NHWD-870], the “Clone Size (relative colony size, 3D matrigel assay)” value in the data set with MDA-MB231 cells was 23.2 and 29.8 and 19 and 25.8 and 21.1. Besides, the “fold decrease of the growth of TAMs” value in the data set with TAMs (100 nM, 3-D culture, Fig 5c-e) is given as “about 8 fold”. For the same compound, the “ability of A2780 to support the growth of TAMs” value in the data set with TAMs (A2780 pretreated with 100 nM, 3D co-culture) is reported as “completely abolished the ability of A2780 to support the growth of TAMs”. The “effects on monocytes in peripheral blood” value in data set [1] is given as “relatively mild effects”.
